Tested on: COVID-19 virus
Experiment: In-vitro antiviral CPE test in Vero E6 cells, COVID-19 virus
Type: cell-based

SMILES	COVID-19 virus SI
COc1ccc(C2OCC3C(c4ccc(OC(=O)C(C)c5ccc(CC(C)C)cc5)c(OC)c4)OCC23)cc1OC (stereo not shown) [compound 6]	4.72
COc1ccc([C@H]2OC[C@H]3[C@@H]2CO[C@H]3c2ccc(O[C@@H]3O[C@H](CO)[C@@H](O)[C@H](O)[C@H]3O)c(OC)c2)cc1OC [compound 2]	30.50
COc1cc(O)cc(C2OCC3C(c4ccc(OC5OC(CO)C(O)C(O)C5O)c(OC)c4)OCC23)c1 (stereo not shown) [compound 1]	31.61
COc1ccc(C2OCC3C(c4ccc(OC)c(OC)c4)OCC23)cc1O (stereo not shown) [compound 3]	5.33
